{"source": "ChEMBL document CHEMBL1132898", "about": "“COBRA-1, a rationally-designed epoxy-THF containing compound with potent tubulin depolymerizing activity as a novel anticancer agent” (2000)", "key": {"Homo sapiens": {"species_on_record": "Homo sapiens", "assay": "Concentration for inhibition of proliferation of BT-20 by impairing the mitotic spindle assembly; Range 1-10 uM", "assay_type": "functional"}, "BT-20": {"system": "BT-20", "assay": "Concentration of compound that increased the level of c-jun mRNA expression in BT-20 breast cancer cells", "assay_type": "functional, cell-based", "settings": "Homo sapiens"}, "NALM-6 [1]": {"system": "NALM-6", "assay": "Compound (10 uM) was tested for its ability to kill clonogenic NALM-6 cells", "assay_type": "functional, Homo sapiens"}, "NALM-6 [2]": {"system": "NALM-6", "assay": "Compound (100 uM) was tested for its ability to kill clonogenic NALM-6 leukemia cells at 100 uM", "assay_type": "functional, Homo sapiens"}, "NALM-6 [3]": {"system": "NALM-6", "assay": "Cytotoxic activity (<10 uM) against clonogenic NALM-6 leukemia using standard in vitro clonogenic assay; No effect", "assay_type": "functional, cell-based", "settings": "Homo sapiens"}, "PC-3 [4]": {"system": "PC-3", "assay": "Compound (10 uM) was tested for its ability to kill clonogenic PC-3 cells", "assay_type": "functional, Homo sapiens"}, "PC-3 [5]": {"system": "PC-3", "assay": "Compound (100 uM) was tested for its ability to kill clonogenic PC-3 cells at 100 uM", "assay_type": "functional, Homo sapiens"}, "PC-3 [6]": {"system": "PC-3", "assay": "Cytotoxic activity (<10 uM) against PC-3 prostate cancer cells using standard in vitro clonogenic assay; No effect", "assay_type": "functional, cell-based", "settings": "Homo sapiens"}, "U373 MG [7]": {"system": "U373 MG", "assay": "Concentration of compound that increased the level of c-jun mRNA expression in U373 glioblastoma cells", "assay_type": "functional, cell-based", "settings": "Homo sapiens; U-373MG ATCC"}, "[8]": {"target": "Tubulin alpha chain (Sus scrofa) (UniProt P02550)", "sequence (P02550 whole entry, looked up)": "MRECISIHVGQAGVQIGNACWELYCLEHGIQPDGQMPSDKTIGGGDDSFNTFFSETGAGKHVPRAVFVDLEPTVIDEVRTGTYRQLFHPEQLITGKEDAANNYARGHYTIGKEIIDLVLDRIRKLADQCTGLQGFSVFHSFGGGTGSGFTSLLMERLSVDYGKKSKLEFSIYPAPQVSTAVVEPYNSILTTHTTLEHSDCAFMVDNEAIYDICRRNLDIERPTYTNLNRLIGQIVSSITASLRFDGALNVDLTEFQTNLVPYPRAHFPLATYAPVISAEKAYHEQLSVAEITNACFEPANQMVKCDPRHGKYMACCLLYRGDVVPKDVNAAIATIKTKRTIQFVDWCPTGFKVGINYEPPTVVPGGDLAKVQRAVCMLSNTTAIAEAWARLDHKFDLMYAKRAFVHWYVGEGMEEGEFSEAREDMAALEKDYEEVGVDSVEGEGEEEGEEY", "assay": "Compound was tested for tubulin polymerization in presence of GTP by using cell free tubulin turbidity assay; Active", "assay_type": "functional"}, "U373 MG [9]": {"system": "U373 MG", "assay": "Concentration for inhibition of proliferation of U373 by impairing the mitotic spindle assembly at a concentration; Range 1-10 uM", "assay_type": "functional, cell-based", "settings": "Homo sapiens; U-373MG ATCC"}}, "note": "The source made the active and inactive calls. The rule behind the calls is not given here.", "data": [{"smiles": "C=CCC[C@H](O)[C@H]1CC[C@H]([C@H](O)CCCCCCCCCCCC)O1", "values": [{"measurement": "Concentration", "setting": "Homo sapiens", "value": 10, "unit": "µM"}, {"measurement": "Concentration", "setting": "BT-20", "value": 250, "unit": "µM"}, {"measurement": "Cell kill", "setting": "NALM-6 [1]", "value": 99, "unit": "%"}, {"measurement": "Cell kill", "setting": "NALM-6 [2]", "value": ">99.9", "unit": "%"}, {"measurement": "Concentration", "setting": "NALM-6 [3]", "value": "inactive"}, {"measurement": "Cell kill", "setting": "PC-3 [4]", "value": 91, "unit": "%"}, {"measurement": "Cell kill", "setting": "PC-3 [5]", "value": ">99.9", "unit": "%"}, {"measurement": "Concentration", "setting": "PC-3 [6]", "value": "inactive"}, {"measurement": "Concentration", "setting": "U373 MG [7]", "value": 250, "unit": "µM"}, {"measurement": "inhibition", "setting": "[8]", "value": "Active"}, {"measurement": "Concentration", "setting": "U373 MG [9]", "value": 10, "unit": "µM"}]}]}
